Converted amounts (≈) assume the structure as drawn. “Also recorded” adds a separate entry of the source. Read-outs that look alike come from different tables or passages of the source. Where a SMILES comes first, the peptide text is derived from it.
Legend:
human red blood cells = assay: Hemolysis assay; assay type: cell-based
Protocol: (§1) The ability of dendrimers and peptides to cause hemolysis was evaluated using human whole red blood cells. Briefly, fresh human erythrocytes (obtained from Divbio Science Europe, NL) were washed 3 times by centrifugation at 800× g for 5 min with sterile phosphate buffer saline (PBS, pH 7.4). The washed erythrocytes were resuspended in complete culture media (DMEM supplemented with 10% FBS) to a final concentration of 8%. Human erythrocytes were then added into sterile 96-well microplates (150 µL per well) and were exposed to increasing concentrations of peptides or dendrimers. After 1 h incubation at 37 °C, plates were centrifuged at 800× g for 5 min. Then, 100 µL of supernatant were carefully transferred to a new 96-well microplate and absorbance was measured at 450 nm using microplate reader. Triton-X100 at 0.1% (v/v) was used as positive control giving 100% hemolysis. The HC50 values of peptides and dendrimers (i.e., the concentration of compound causing 50% of hemolysis) were calculated using GraphPad® Prism 7 software.

Hemolysis assay = assay type: cell-based, human; settings: human
Protocol: as §1

liver cancer cells HepG2 = assay type: cell-based, human; settings: 48 h
Protocol: (§2) The antiproliferative effect of the peptides was determined by using human cells, as previously described. Human cancer cells used in this experiment were ovarian cancer cells A2780 (obtained from ECACC), breast cancer cells MCF-7 (obtained from ATCC), liver cancer cells HepG2 (obtained from ATCC), lung cancer cells A549 (obtained from ATCC), pancreatic cancer cells MiaPaCa (obtained from ATCC), prostate cancer cells PC-3 (obtained from ATCC), and skin cancer cells MNT-1 (generous gift from the National Institute of Health (NIH). Normal human cells used were human lung fibroblasts IMR-90 (obtained from ATCC). All cells were cultured in DMEM which was supplemented with 10% fetal bovine serum (FBS), 1% L-glutamine, and 1% antibiotics (all from Invitrogen) at 37 °C in 5% CO2 incubator. For cytotoxicity assay, cells were maintained in 25 cm^2 flasks. Cells were separated from flasks using trypsin-EDTA solution (from Thermofisher) and counted using Malassez chamber and diluted in culture medium before seeding into 96-well cell-culture plates (Greiner bio-one, Paris, France) at approximately 3000 cells/well. Cells were then treated with increasing concentration of peptides diluted in culture medium (1:2 serial dilution, from 100 µM to 0 µM). After 48 h, medium was aspirated and number of viable cells was colorimetrically determined using resazurin-based assay following manufacturer’s instructions. The fluorescence intensity was measured using microplate reader (Biotek, Santa Clara, CA, USA, Synergy Mx) with an excitation wavelength of 530 nm and an emission wavelength of 590 nm. The fluorescence values were normalized by the controls (untreated cells) and expressed as percent of proliferation. The IC50 values of peptides (i.e., the concentrations causing 50% inhibition of cell proliferation) were determined using GraphPad® Prism 7 software.

[1] = test system: prostate cancer cells PC-3; assay type: cell-based, human; settings: 48 h
Protocol: as §2

skin cancer cells MNT-1 = assay type: cell-based, human; settings: 48 h
Protocol: as §2

[2] = test system: breast cancer cells MCF-7; assay type: cell-based, human; settings: 48 h
Protocol: as §2

lung cancer cells A549 = assay type: cell-based, human; settings: 48 h
Protocol: as §2

[3] = test system: pancreatic cancer cells MiaPaCa; assay type: cell-based, human; settings: 48 h
Protocol: as §2

[4] = test system: ovarian cancer cells A2780; assay type: cell-based, human; settings: 48 h
Protocol: as §2

[5] = test system: methicillin-resistant Staphylococcus aureus (MRSA); set-up: method as in PMID 35092568; settings: cited from earlier work
[6] = Dynamic light scattering (zetasizer); assay type: physicochemical
Protocol: The dendrimeric solutions of peptides were transferred into transparent cuvette with care to remove bubble formation. The sample was then transferred to the cell holder and study was performed at 90° scattering angle at room temperature. The standard viscosity and refractive index were kept constant and kept at 1.0, 1.33 and 80.4 mPa, respectively.

H. pylori = test system: H. pylori; set-up: method as in PMID 31614561; settings: cited from earlier work
[7] = test system: human lung fibroblasts IMR-90; assay type: cell-based; settings: 48 h
Protocol: as §2

human cancer cells = assay type: cell-based; settings: 48 h
Protocol: as §2

[8] = cited from earlier work
[9] = Stability study at different temperatures (absorbance spectrum); settings: room temperature, 35 °C, 40 °C, 50 °C and 60 °C
Protocol: (§3) The stability of dendrimers at different pH values and temperatures was also determined. For this, a 510 model digital pH meter (Oakton Eutech) with working electrode of glass material and a Ag/AgCl as reference electrode was used for the pH record. Dilute solutions of HCl and NaOH were added to adjust the pH of the solution from 2 to 12. Similarly, stability of monomer [G10a]-SHa and its three dendrimers was checked by heating the peptide dendrimers on different temperature ranges, i.e., room temperature, 35 °C, 40 °C, 50 °C and 60 °C.

[10] = Stability study at different pH; settings: pH 2 to pH 14
Protocol: as §3, with “Dilute solutions of HCl and NaOH were added to adjust the pH of the solution from 2 to 12.” left out

[11] = test system: Acinetobacter baumannii (DSM 30007); assay type: cell-based
Protocol: (§4) Experiments were performed in triplicate (n = 3).

[12] = test system: Pseudomonas aeruginosa (ATCC 9027); assay type: cell-based
Protocol: as §4

[13] = test system: Enterobacter cloacae (DSM 30054); assay type: cell-based
Protocol: as §4

[14] = test system: Helicobacter pylori (ATCC 43504); assay type: cell-based
Protocol: as §4

[15] = test system: Klebsiella pneumoniae (DSM 26371); assay type: cell-based
Protocol: as §4

[16] = test system: Enterococcus faecium (DSM 20477); assay type: cell-based; settings: DSM 20477
Protocol: as §4

[17] = test system: Staphylococcus aureus (ATCC 6538); assay type: cell-based
Protocol: as §4

[18] = test system: Escherichia coli (ATCC 8739); assay type: cell-based
Protocol: as §4

[19] = test system: Bacillus subtilis (ATCC 6633); assay type: cell-based
Protocol: as §4

[20] = test system: Enterococcus faecalis (DSM 2570); assay type: cell-based
Protocol: as §4

## CC[C@H](C)[C@H](NC(=O)CNC(=O)[C@H](CO)NC(=O)[C@H](CC(C)C)NC(=O)[C@@H](N)Cc1ccccc1)C(=O)N[C@H](C(=O)NCC(=O)N[C@@H](CCSC)C(=O)N[C@@H](CC(C)C)C(=O)N[C@H](C)C(=O)N[C@@H](CCCCN)C(=O)N[C@@H](CC(C)C)C(=O)N[C@@H](Cc1ccccc1)C(N)=O)C(C)C [[G10a]-SHa, H-Phe^1-Leu^2-Ser^3-Gly^4-Ile^5-Val^6-Gly^7-Met^8-Leu^9-D-Ala^10-Lys^11-Leu^12-Phe^13-NH2] (HELM PEPTIDE1{F.L.S.G.I.V.G.M.L.[dA].K.L.F.[am]}$$$$V2.0)
Human red blood cells
  hemolytic activity (in words): high hemolytic activity
Human red blood cells; red cells of human, 1 h
  estimated HC50 (concentration causing 50% of hemolysis): 43.66 ± 1.01 µM
Hemolysis assay
  hemolysis at 100 µM: 102 ± 6.18%
Liver cancer cells HepG2
  IC50: 31.6 ± 1.56 µM
[1]
  IC50: 13 ± 1.99 µM
Skin cancer cells MNT-1
  IC50: 15.2 ± 0.8 µM
[2]
  IC50: 15.1 ± 8.51 µM
Lung cancer cells A549
  IC50: 14.5 ± 1.44 µM
[3]
  IC50: 22.4 ± 6.07 µM
[4]
  IC50: 14.8 ± 7.35 µM
[5]
  antibacterial activity (in words): active
[6]; DLS
  Pdi Values (polydispersity index): 0.628
[6]; DLS, room temperature
  Z-Average: 63.25 nm·days
[6]; zetasizer
  Zeta Potential: −34.1 mV
H. pylori
  antibacterial activity (in words): active
[7]
  IC50: 37.2 ± 2.88 µM
Human cancer cells
  IC50: 18.1 ± 6.68 µM
[8]
  serum stability (in words): good serum stability
[9]
  stability at different temperatures: considerable stability up to 60 °C; also recorded: higher stability up to 60 °C
[10]
  stability at different pH: significantly stable at pH values up to 10 and unstable at high pH values of 12 and 14
[11]; A. baumannii (DSM 30007), 18–24 h, aerobic
  minimal inhibitory concentration (MIC): 12.5 µM (≈ 17.4 µg/mL)
[11]; DSM 30007
  minimal inhibitory concentration (MIC): 12.5 µM (≈ 17.4 µg/mL)
[12]; ATCC 9027
  minimal inhibitory concentration (MIC): >100 µM
[12]; P. aeruginosa (ATCC 9027), 18–24 h, aerobic
  minimal inhibitory concentration (MIC): > 100 µM
[13]; DSM 30054
  minimal inhibitory concentration (MIC): >100 µM
[13]; E. cloacae (DSM 30054), 18–24 h, aerobic
  minimal inhibitory concentration (MIC): > 100 µM
[14]; ATCC 43504
  minimal inhibitory concentration (MIC): 3.12 µM (≈ 4.35 µg/mL)
[14]; H. pylori (ATCC 43504), 18–24 h, micro-aerobic
  minimal inhibitory concentration (MIC): 3.12 µM (≈ 4.35 µg/mL)
[15]; DSM 26371
  minimal inhibitory concentration (MIC): 100 µM (≈ 139 µg/mL)
[15]; K. pneumoniae (DSM 26371), 18–24 h
  minimal inhibitory concentration (MIC): 100 µM (≈ 139 µg/mL)
[16]
  minimal inhibitory concentration (MIC): >100 µM
[17]; ATCC 6538
  minimal inhibitory concentration (MIC): 3.12 µM (≈ 4.35 µg/mL)
[17]; S. aureus (ATCC 6538), 18–24 h, aerobic
  minimal inhibitory concentration (MIC): 3.12 µM (≈ 4.35 µg/mL)
[18]; ATCC 8739
  minimal inhibitory concentration (MIC): 100 µM (≈ 139 µg/mL)
[18]; E. coli (ATCC 8739), 18–24 h, aerobic
  minimal inhibitory concentration (MIC): 100 µM (≈ 139 µg/mL)
[19]; ATCC 6633
  minimal inhibitory concentration (MIC): 3.12 µM (≈ 4.35 µg/mL)
[19]; B. subtilis (ATCC 6633), 18–24 h, aerobic
  minimal inhibitory concentration (MIC): 3.12 µM (≈ 4.35 µg/mL)
[20]; DSM 2570
  minimal inhibitory concentration (MIC): 25 µM (≈ 34.9 µg/mL)
[20]; E. faecalis (DSM 2570), 18–24 h, micro-aerobic
  minimal inhibitory concentration (MIC): 25 µM (≈ 34.9 µg/mL)
